Earlier results as cited in US20100234288A1, “SUSTAINED RELEASE PHARMACEUTICAL COMPOSITION ON THE BASIS OF RELEASE SYSTEM COMPRISING AN ACID-SOLUBLE POLYMER AND A pH-DEPENDENT POLYMER” (PANACEA BIOTEC LTD, priority 2006, published 2010).

In the case of `O=C1Cc2cc(CCN3CCN(c4nsc5ccccc45)CC3)c(Cl)cc2N1` [Ziprasidone, 5-[2-[4-(1,2-benzisothiazol-3-yl)-1-piperazinyl]ethyl]-6-chloro-1,3-dihydro-2H-indol-2-one], the “time to reach peak plasma concentrations” value (after oral administration) is listed as 6 to 8 h and the “effect of food on absorption” value (presence of food, gastrointestinal absorption) is listed as “doubles the absorption”.
